From PubChem BioAssay AID1322 (NMMLSC, 2008) come the findings set out here.

Calls of active or inactive are those of the source. No rule for the calls is given here.

For the first assay, the target named is Bcl-2-like protein 1 (Homo sapiens) (UniProt Q07817). The assay is described as follows: Bim-Bcl-XL interaction inhibitors, potency, dose response, biochemical, multiplexed, bead flow cytometry, human Bcl-XL (AID 1322). As to inhibition: test concentration not given here. To be noted: Bead-based flow cytometry, Bim peptide-Bcl-XL binding, MCF. For orientation: Flow cytometry measures light scatter and fluorescence of single cells or particles in a stream.
Bcl-2-like protein 1 (Homo sapiens), sequence (Q07817 whole entry, looked up): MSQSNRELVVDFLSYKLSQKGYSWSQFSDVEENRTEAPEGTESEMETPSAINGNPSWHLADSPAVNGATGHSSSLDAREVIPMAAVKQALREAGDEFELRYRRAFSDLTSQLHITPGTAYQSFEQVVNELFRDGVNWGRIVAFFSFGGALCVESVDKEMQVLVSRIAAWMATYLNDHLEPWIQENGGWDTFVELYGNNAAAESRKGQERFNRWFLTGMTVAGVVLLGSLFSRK
Consider `Cn1cccc1CC(=O)N/N=C\c1ccccc1`, for which the outcome was inactive.

For the molecule `Clc1ccc(N=c2ssnc2Cl)nc1`, the result was inactive.

`CSc1ccccc1NC(=O)CN(C)CC(=O)Nc1ccc(N2CCOCC2)cc1`: the result was inactive.

As for `CCOC(=O)c1cc2c(=O)n3ccccc3nc2n(Cc2ccco2)c1=NC(=O)c1ccccc1OC`, the outcome was inactive.

Take `CCOC(=O)c1nn(-c2ccccc2)c(C#N)c1N`: the outcome was inactive.

For the molecule `O=C(CC1NCCNC1=O)Nc1cccc([N+](=O)[O-])c1` (stereo not drawn), the result was inactive.

`Oc1ccc(NCc2ccccc2OCc2ccccc2)cc1`: the result was inactive.

Take `CCOC(=O)C1(Cc2cccc(OC)c2)CCN(Cc2cccc(OC)c2OC)CC1`: the result was inactive.

As to `CC(C)C(=O)NC(c1ccccc1)c1cc([N+](=O)[O-])c2cccnc2c1O` (stereo not drawn), the outcome was inactive.

For the molecule `CNC(=O)CC1C(=O)N(Cc2ccccc2)C(=S)N1NC(=O)c1cccc(F)c1` (stereo not drawn), the result was inactive.

Turning to `Cc1ccc(C)c(NC(=O)C(=O)NCc2ccccn2)c1`, the outcome was inactive.

Consider `COc1cc(/C=C2/NC(=O)N(Cc3ccccc3F)C2=O)ccc1O`, for which the outcome was inactive.

Still in this assay, the particulars now being: Bead-based flow cytometry, Bim peptide-Bcl-XL binding, MCF.
As for `O=C(/C=C/c1ccc(-c2ccccc2)o1)c1ccccc1`, the inhibition entry is “inactive”.

With `O=C(OCc1nc2ccccc2[nH]1)C12CC3CC(CC(C3)C1)C2`, the inhibition entry is “inactive”.

`O=C1C(Cl)=C(N2CCN(c3ccccc3[N+](=O)[O-])CC2)C(=O)c2ccccc21`: the inhibition entry was “inactive”.

Regarding `Fc1ccc(/C=C2\CCCC3=C2NC(=S)NC3c2ccc(F)cc2)cc1` (stereo not drawn), the inhibition entry was “inactive”.

For the molecule `COc1ccc(N2CCN(CCCNC(=O)CCCn3c(=O)[nH]c4ccsc4c3=O)CC2)cc1`, the inhibition entry is “inactive”.

With `O=C1C=C(Nc2ccccc2)C(=O)c2ccccc21`, the inhibition entry is “inactive”.

As to `OC(COc1ccc2ccccc2c1)CN1CCCC1` (stereo not drawn), the inhibition entry is “inactive”.

Take `Cc1cc(N2CCN(C)CC2)nc2ccc(NC(=S)N3CCCCC3)cc12`: the inhibition entry is “inactive”.

On to `CCCC1(C(=O)OCC)NC(c2cc(OC)c(OC)c(OC)c2)C2C(=O)N(CC)C(=O)C21` (stereo not drawn), for which the inhibition entry was “inactive”.

For `CCc1nnc(NC(=O)CSc2nnc(COc3ccc(C)cc3)n2-c2ccccc2)s1`, the inhibition entry was “inactive”.

With `COc1cc(/C=C2\S/C(=N/S(=O)(=O)c3ccc(C)cc3)NC2=O)c([N+](=O)[O-])cc1OC`, the inhibition result is “inactive”.

Take `Cc1sc(NC(=O)Cn2cnnn2)nc1-c1ccc(Cl)cc1`: the inhibition entry was “inactive”.

Turning to `CCOC(=O)C1CCCN(c2ncnc3c2cnn3-c2cccc(C)c2)C1` (stereo not drawn), the inhibition result is “inactive”.

For the molecule `Brc1ccc2ncnc(Nc3ccc(N4CCOCC4)cc3)c2c1`, the inhibition result is “inactive”.

As for `O=C(O)c1ccc(NS(=O)(=O)c2ccc3c(c2)C(=O)c2ccccc2C3=O)cc1`, the inhibition result was “inactive”.

For the molecule `Cn1c(=O)c(C(=O)COC(=O)c2cc(-c3ccco3)nc3ccccc23)c(N)n(CC2CC2)c1=O`, the inhibition entry was “inactive”.

With `Cc1ccc(-c2nc(N3CCOCC3)s[n+]2-c2ccccc2)cc1`, the inhibition entry was “inactive”.

Turning to `COC(=O)c1sc2nc[nH]c(=O)c2c1C`, the inhibition entry is “inactive”.

In the case of `COc1ccc(N=C2NC(=O)/C(=C\C=C\c3ccco3)S2)cc1`, the inhibition entry is “inactive”.

As for `Cc1ccc(Nc2nc(-c3c(C)nc4ncccn34)cs2)cc1`, the inhibition entry was “inactive”.

As for `O=C(Cc1ccccc1)OCCNC(=O)c1cccnc1`, the inhibition entry is “inactive”.

As for `O=C1C(Cl)=C(Nc2ccccc2O)C(=O)N1c1ccccc1`, the inhibition entry is “inactive”.

For `O=C(c1ccc(CNS(=O)(=O)c2ccc(Br)cc2)cc1)N1CCCC1`, the inhibition result is “inactive”.

Turning to `O=C(NCC1CCCO1)c1ccc2c(=O)n(-c3ccc(F)cc3)c(=S)[nH]c2c1` (stereo not drawn), the inhibition result is “inactive”.

For the molecule `CC1N(C)c2cccc3cccc(c23)N1C`, the inhibition entry was “inactive”.

For `CN(CCO)c1cc(Sc2nc3ccccc3s2)c2nonc2c1[N+](=O)[O-]`, the inhibition entry is “inactive”.

Turning to `COc1ccc(N2C(=O)C(Cl)=C(Nc3ccccc3O)C2=O)cc1`, the inhibition entry was “inactive”.

Consider `COc1cccc2c(SCC(=O)N/N=C/c3ccccc3)cc(C)nc12`, for which the inhibition entry was “inactive”.

In the case of `Cc1ccc(C)n1-c1ccc(N2CCOCC2)cc1`, the inhibition entry was “inactive”.

Regarding `O=C(NCCCN1CCCC1=O)NC1CCCCC1`, the inhibition result was “inactive”.

On to `Cc1ccc(NC(=O)C/C(N)=N/OC(=O)c2ccccc2)cc1`, for which the inhibition result is “inactive”.

Regarding `NNC(=O)COc1ccccc1F`, the inhibition result was “inactive”.

With `O=C(Oc1ccc(-c2cnc3ccccc3n2)cc1)c1cccc([N+](=O)[O-])c1`, the inhibition entry is “inactive”.

With `Cc1cc(NC(=O)CSc2nnc(-c3cccnc3)n2Cc2ccccc2)no1`, the inhibition result was “inactive”.

As to `Cc1cc(C)cc(-n2c(C)nc3cc(C(=O)O)ccc32)c1`, the inhibition result was “inactive”.

Turning to `COc1ccc(Cl)cc1-n1c(C)cc(C=O)c1C`, the inhibition entry was “inactive”.

For `CC1Cc2ccccc2N1C(=O)CSc1nnnn1-c1ccc2c(c1)OCCO2` (stereo not drawn), the inhibition entry is “inactive”.

For the molecule `COc1ccc(N2CCN(C(=O)c3cc(=O)[nH]c4ccccc34)CC2)cc1`, the inhibition result is “inactive”.

Turning to `Cc1cccn2c(=O)c3cc(C(N)=S)c(=N)n(CCCN4CCOCC4)c3nc12`, the inhibition result is “inactive”.

As for `CCOc1cccc(CNc2ccc(O)cc2)c1OCc1ccc(Cl)cc1`, the inhibition entry is “inactive”.

Take `COC(=O)c1ccc(-n2nnnc2SCC(=O)Nc2cc(OC)ccc2OC)cc1`: the inhibition entry is “inactive”.

For the molecule `COc1ccccc1NC(=O)CSc1ncn(-c2ccccc2)n1`, the inhibition entry is “inactive”.

In the case of `O=C(CNC(=O)c1ccco1)NCC(=O)OCc1ccccc1Br`, the inhibition entry was “inactive”.

For the molecule `Cc1cc2nc(/C(C#N)=C/c3ccncc3)[nH]c2cc1C`, the inhibition entry was “inactive”.

On to `S=C(Nc1ccc(N2CCOCC2)cc1)Nc1ccc2nc(-c3ccco3)c(-c3ccco3)nc2c1`, for which the inhibition entry was “inactive”.

With `CC(C)CN1C(=O)/C(=C/c2ccco2)NC1=S`, the inhibition entry is “inactive”.

For `O=C(NC1=C(Nc2ccc(Cl)cc2)C(=O)c2ccccc2C1=O)c1ccccc1`, the inhibition result was “inactive”.

With `CCc1cccc(CC)c1-n1c(-c2cccnc2)n[nH]c1=S`, the inhibition result is “inactive”.

Take `COc1ccc(N2C(=O)/C(=C/c3cccs3)NC2=S)cc1`: the inhibition entry was “inactive”.

For `CC1=CC(=O)c2c(O)ccc(O)c2C1=O`, the inhibition result was “inactive”.

`Cc1ccc(NC(=O)CSc2nc3ccccc3c(=O)n2CCCN2CCCCC2)cc1Cl`: the inhibition result was “inactive”.

On to `COc1cc(C2Nc3cccc4cccc(c34)N2)cc(OC)c1O`, for which the inhibition result was “inactive”.

In the case of `c1ccc(-c2nc(N3CCOCC3)s[n+]2-c2ccccc2)cc1`, the inhibition entry was “inactive”.

On to `Nc1ccc(C2=Nc3cccc4cccc(c34)N2)cc1`, for which the inhibition result is “inactive”.

Turning to `S=c1[nH]cc(-c2ccccc2)n1-c1ccccc1`, the inhibition entry was “inactive”.

Regarding `CC1Cc2ccccc2N1C(=O)c1ccc(N2CCCC2)c([N+](=O)[O-])c1` (stereo not drawn), the inhibition result was “inactive”.

As to `O=C(N/N=C/c1ccc(O)c(O)c1O)/C(=C/c1ccc([N+](=O)[O-])cc1)NC(=O)c1ccccc1`, the inhibition entry was “inactive”.

As to `O=C1/C(=C/c2cccs2)Sc2ccccc21`, the inhibition result is “inactive”.

For the molecule `Nc1ccc(N2CCN(CCCCN3C(=O)C4CCCN4C3=O)CC2)cc1` (stereo not drawn), the inhibition entry was “inactive”.

Turning to `COc1ccc(-c2noc(COc3ccc4c(c3)OCO4)n2)cc1OC`, the inhibition result was “inactive”.

Regarding `O=[N+]([O-])c1c(NCCCO)cc(Sc2nc3ccccc3s2)c2nonc12`, the inhibition result was “inactive”.

For the molecule `CCOC(=O)C1CCN(C(=O)Nc2ccc3nc(-c4ccco4)c(-c4ccco4)nc3c2)CC1`, the inhibition result is “inactive”.

`Oc1ccc(C=NCC2COc3ccccc3O2)cc1` (stereo not drawn): the inhibition entry was “inactive”.

Regarding `CN1CCN(c2ccc(N)cc2)CC1`, the inhibition entry is “inactive”.

For the molecule `COc1ccc2nc(C)cc(SCC(=O)N/N=C/c3ccc(O)c(O)c3)c2c1`, the inhibition entry is “inactive”.

Take `CC(=O)c1ccc2c(c1)C1C=CCC1C(c1ccncc1)N2` (stereo not drawn): the inhibition result was “inactive”.

`Cc1[nH]nc(SCC(=O)NCc2ccc(F)cc2)c1[N+](=O)[O-]`: the inhibition result was “inactive”.

Take `COc1ccc(C(=S)N2CCCCCC2)cc1`: the inhibition entry is “inactive”.

Take `CC(/C=C/C(=O)c1ccc(C)cc1)=C\c1ccccc1`: the inhibition entry was “inactive”.

As to `O=C(c1cc(=O)c2ccccc2o1)N1CCN(c2ccccc2F)CC1`, the inhibition result was “inactive”.

As for `Cc1cc(C)c(S(=O)(=O)/N=C2/C=C(SCC(=O)O)C(=O)c3ccccc32)cc1C`, the inhibition entry was “inactive”.

With `CCN1CCN(c2cc(C)c3cc(NC(=S)N4CCN(c5ccccc5)CC4)ccc3n2)CC1`, the inhibition result was “inactive”.

With `O=C(Cn1c2ccccc2c(=O)c2ccccc21)N/N=C/c1ccc(N2CCCC2)c([N+](=O)[O-])c1`, the inhibition entry was “inactive”.

Consider `O=C(COC(=O)c1ccccn1)NC1CCCCC1`, for which the inhibition result was “inactive”.

For the molecule `COc1ccccc1-n1c(-c2ccccc2)c[nH]c1=S`, the inhibition entry is “inactive”.

Regarding `Clc1ccc2c(N/N=C/c3cccc(Br)c3)ccnc2c1`, the inhibition result is “inactive”.

For `CCOC(=O)c1cccc(Nc2ncnc3ccccc23)c1`, the inhibition entry is “inactive”.

Regarding `CCCCCCc1cc2cc(C(=O)Nc3ccccc3)c(=O)oc2cc1O`, the inhibition entry is “inactive”.

With `CN1/C(=C\C(=O)Nc2ccc(Cl)cc2)C(C)(C)c2ccccc21`, the inhibition result was “inactive”.

Turning to `COc1cc(NC(=O)c2ccc3c(c2)OCO3)ccc1NC(=O)c1ccco1`, the inhibition entry is “inactive”.

Turning to `Cc1cc(Cl)ccc1N=c1ssnc1Cl`, the inhibition result was “inactive”.
